How the values were obtained:
[1] = Displacement of [3H]PbTx3 from VSSC in Sprague-Dawley rat brain synaptosomes; type: subcellular
Gambusia affinis = experiment: Toxicity against Gambusia affinis assessed as time required for death at 1 ug/ml after 24 hrs; type: organism-based; conditions: in vivo

Row | SMILES | Ki [1] [nM] | Activity (Gambusia affinis)
1 | C=C/C=C\CC[C@H]1O[C@H]2CC[C@@]3(C)O[C@H]4[C@@H](O)C[C@@]5(C)O[C@@H](CC/C=C(C)/C(C)=C/C=O)[C@@H](C)C[C@H]5O[C@@H]4C[C@@H]3O[C@@H]2CC[C@@]1(C)O [BREVENAL] | 1850 | Non-toxic
2 | C=C(C=O)C[C@@H]1C[C@H](O)[C@]2(C)O[C@@H]3C[C@@H]4O[C@@H]5C[C@]6(C)O[C@]7(C)CC[C@@H]8O[C@@H]9C[C@]%10(C)O[C@@H]%11C(C)=CC(=O)O[C@H]%11C[C@H]%10O[C@H]9C[C@@H](C)[C@H]8O[C@H]7C[C@H]6O[C@@]5(C)C/C=C\[C@H]4O[C@H]3C[C@H]2O1 [BREVETOXIN B] | – | 7.5 min
3 | C=C/C=C\CC[C@H]1O[C@H]2CC[C@@]3(C)O[C@H]4[C@@H](O)C[C@@]5(C)O[C@@H](CC/C=C(C)/C(C)=C/C(OC)OC)[C@@H](C)C[C@@H]5O[C@@H]4C[C@@H]3O[C@@H]2CC[C@@]1(C)O [BREVENAL ACETAL] | 680 | Non-toxic

Source: ChEMBL document CHEMBL1142558, “A new polyether ladder compound produced by the dinoflagellate Karenia brevis” (J Nat Prod, 2005)
